Measured values as given in patent US20040076581A1, “Use of neuropeptide y1 receptor binding compounds in the treatment and diagnosis of cancer” (priority 2000, published 2004).
“Also recorded” adds a separate entry of the source.

Assays:
[1] = molecular target: T1, Y1 in human breast carcinoma (Homo sapiens, UniProt P25929); test: NPY receptor autoradiography, displacement of 125I-PYY in breast carcinoma sections; format: binding; details: FIG. 2; increasing concentrations; Y1-expressing breast tumor
T1 construct: Twenty-μm thick cryostat sections of the tissue samples were processed for NPY receptor autoradiography; from tissue; host or cells: human breast carcinoma cryostat sections
T1 sequence (P25929 1-384): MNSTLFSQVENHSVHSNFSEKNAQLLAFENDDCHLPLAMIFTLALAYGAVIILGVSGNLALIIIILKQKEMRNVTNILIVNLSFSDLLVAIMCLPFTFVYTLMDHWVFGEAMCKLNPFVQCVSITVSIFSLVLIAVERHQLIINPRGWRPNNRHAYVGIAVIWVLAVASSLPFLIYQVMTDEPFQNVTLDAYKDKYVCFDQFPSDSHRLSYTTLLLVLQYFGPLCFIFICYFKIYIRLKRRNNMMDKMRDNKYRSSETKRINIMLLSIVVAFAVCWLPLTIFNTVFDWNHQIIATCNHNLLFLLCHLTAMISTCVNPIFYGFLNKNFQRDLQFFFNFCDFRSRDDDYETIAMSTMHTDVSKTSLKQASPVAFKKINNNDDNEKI
Procedure: For autoradiography, tissue sections were mounted on precleaned microscope slides and stored at −20° C. for at least 3 days to improve adhesion of the tissue to the slide.
(§1) On completion of the incubation, the slides were washed four times for 5 min each in ice-cold preincubation solution, pH 7.4. They were rinsed twice in ice-cold distilled water, and then dried under a stream of cold air at 4° C., apposed to ^3H-Hyperfilms and exposed for 7 days in x-ray cassettes.
(§2) Tissue standards for iodinated compounds (Amersham) were used for this purpose.

[2] = molecular target: T2, Y2 receptors in normal breast (Homo sapiens, UniProt P49146); test: NPY receptor autoradiography, displacement of 125I-PYY in adjacent normal breast sections; format: binding; details: FIG. 1; surrounding normal breast expressing predominantly Y2
T2 construct: Twenty-μm thick cryostat sections of the tissue samples were processed for NPY receptor autoradiography; from tissue; host or cells: human normal breast tissue adjacent to carcinoma, cryostat sections
T2 sequence (P49146 1-381): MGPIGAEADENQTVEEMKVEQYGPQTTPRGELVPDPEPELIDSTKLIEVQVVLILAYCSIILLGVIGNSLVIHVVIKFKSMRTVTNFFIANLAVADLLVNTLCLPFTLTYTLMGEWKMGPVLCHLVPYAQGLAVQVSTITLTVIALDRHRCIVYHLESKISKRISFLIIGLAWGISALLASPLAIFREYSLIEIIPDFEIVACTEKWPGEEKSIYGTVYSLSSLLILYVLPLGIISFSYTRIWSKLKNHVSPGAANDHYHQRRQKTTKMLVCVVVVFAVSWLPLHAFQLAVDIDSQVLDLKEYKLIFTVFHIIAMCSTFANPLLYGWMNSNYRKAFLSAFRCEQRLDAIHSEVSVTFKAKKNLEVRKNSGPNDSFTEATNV
Procedure: For autoradiography, tissue sections were mounted on precleaned microscope slides and stored at −20° C. for at least 3 days to improve adhesion of the tissue to the slide. […] The slides were incubated at room temperature with the radioligand for 120 min.
In selected cases, displacements with a single concentration (25 nM) of each of the above mentioned peptides were performed.
as §1, §2

[3] = system: NPY receptors in normal breast; test: NPY receptor autoradiography, total binding of radioligands to adjacent normal breast; design: species or system human; details: FIG. 1
Procedure: (§3) Twenty-μm thick cryostat sections of the tissue samples were processed for NPY receptor autoradiography as described in detail previously for other peptide receptors (Reubi, J. C. et al. Cancer Res. 50, 5969-5977 (1990)). One radioligand used was ^125I-PYY (2'000 Ci/mmol; […], Switzerland), known to specifically label NPY receptors. For autoradiography, tissue sections were mounted on precleaned microscope slides and stored at -20° C. for at least 3 days to improve adhesion of the tissue to the slide. Sections were then processed according to Dumont et al. (J. Neurosci. 13, 73-86 (1993)). They were first preincubated in 119 mM NaCl, 3.2 mM KCl, 1.19 mM KH2PO4, 1.19 mm MgSO4, 25 mM NaHCO3, 2.53 mM CaCl2×2H2O and 10 mM D-glucose, pH 7.4 (preincubation solution), for 60 min at room temperature. The slides were then incubated in a solution containing the same medium as the preincubation solution in which the following compounds were added: 0.1% bovine serum albumin, 0.05% bacitracin, pH 7.4, and the radioligand, at approximate concentration of 22 pM ^125I-PYY. The slides were incubated at room temperature with the radioligand for 120 min. On completion of the incubation, the slides were washed four times for 5 min each in ice-cold preincubation solution, pH 7.4. They were rinsed twice in ice-cold distilled water, and then dried under a stream of cold air at 4° C., apposed to ^3H-Hyperfilms and exposed for 7 days in x-ray cassettes. […] Int 21, 45-67 (1992); […] Neurosci. 76, 215-224 (1997)). Identical experimental conditions as mentioned for ^125I-PYY were used. The autoradiograms were quantified using a computer-assisted image processing system, as described previously (Reubi et al. (1990), supra; […] & Reubi Can. Res. 59,1152-1159 (1999)). Tissue standards for iodinated compounds (Amersham) were used for this purpose. A tissue was defined as receptor-positive when the optical density measured in the total binding section was at least twice that of the nonspecific binding section (in the presence of 10^-7 mol/L PYY).

[4] = molecular target: T3, NPY receptors in breast carcinoma (Homo sapiens, UniProt P25929); test: NPY receptor autoradiography, total binding of radioligands to breast carcinoma
T3 construct: Twenty-μm thick cryostat sections of the tissue samples were processed for NPY receptor autoradiography; from tissue; host or cells: human breast carcinoma cryostat sections
T3 sequence (P25929 1-384): T1 sequence (P25929 1-384)
Procedure: as §3

Row | Compound | displacement of 125I-PYY, competition curves [1] | labeling of breast by radioligand (total binding) [3] | labeling of tumor by radioligand (total binding) ([4]; FIG. 1) | further results
1 | C[C@H](N)C(=O)NCC(=O)N[C@H]1CSSC[C@@H](C(=O)O)NC(=O)[C@H](CO)NC(=O)[C@H]([C@@H](C)O)NC(=O)[C@H](Cc2ccccc2)NC(=O)[C@H]([C@@H](C)O)NC(=O)[C@H](CCCCN)NC(=O)[C@H](Cc2c[nH]c3ccccc23)NC(=O)[C@H](Cc2ccccc2)NC(=O)[C@H](Cc2ccccc2)NC(=O)[C@H](CC(N)=O)NC(=O)[C@H](CCCCN)NC1=O [Somatostatin] | inactive | – | – | –
2 | PYY(13-36) | not | – | – | –
3 | PYY: member of the NPY family of 36 amino acid long peptides [peptide YY] | high affinity displacement | – | – | –
4 | [Leu^31, Pro^34]-NPY | – | – | – | affinity in surrounding breast (rank order of potency) [2]: low affinity
5 | [Leu^31, Pro^34]-PYY | completely displace the radiotracer with high affinity; also recorded: high affinity displacement | – | – | affinity in surrounding breast (rank order of potency) [2]: low affinity
6 | ^125I-PYY | – | strong labeling | strong labeling | –
7 | ^125I-PYY(3-36) | – | labeled | not seen | –
8 | ^125I-[Leu^31, Pro^34]-PYY | – | not or only very weakly visible | strongly labeled | labeling of tumor by radioligand (total binding) ([4]; FIG. 1, Pro^34]-PYY): labeled
